Laboratory results from patent US7763615B2, “Ecteinascidin analogs for use as antitumour agents” (priority 2001, dated 2010).
In brackets after ≈: the same amount, converted by molar mass.

Tests used:
A498 = experiment: cells; assay type: cell-based; settings: Homo sapiens
Procedure, shortened: (§1)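 Continuous 48 h drug exposure of attached human cancer cells (5×10^3/well, RPMI 1640, 10% FBS), doses 10 to 10^−8 μg/ml. Endpoint is SRB staining after TCA fixation, read at 490 nm. GI, TGI and LC calculated from triplicate means.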

A549 = experiment: cells; assay type: cell-based; settings: Homo sapiens, A549, 48 h; for GI50 / IC (TGI): A549, 48 hours exposure, SRB; for GI50: read-out: GI50; for IC (TGI): read-out: TGI; for CC50: read-out: LC50, A549, 48 hours exposure, SRB
Procedure, shortened: as §1

DU145 = experiment: cells; assay type: cell-based; settings: Homo sapiens, DU-145, 48 h; for GI50 / IC (TGI): DU145, 48 hours exposure, SRB; for CC50: read-out: LC50, DU145, 48 hours exposure, SRB
Procedure, shortened: as §1

HT29 = experiment: cells; assay type: cell-based; settings: Homo sapiens, HT-29, 48 h; for GI50 / IC (TGI): HT29, 48 hours exposure, SRB; for CC50: read-out: LC50, HT29, 48 hours exposure, SRB
Procedure, shortened: as §1

MB231 = experiment: cells; assay type: cell-based; settings: Homo sapiens
Procedure, shortened: as §1

MCF = experiment: cells; assay type: cell-based; settings: Homo sapiens
Procedure, shortened: as §1

MEL-28 = experiment: cells; assay type: cell-based; settings: Homo sapiens, SK-MEL-28, 48 h; for GI50 / IC (TGI): MEL-28, 48 hours exposure, SRB; for CC50: read-out: LC50, MEL-28, 48 hours exposure, SRB
Procedure, shortened: as §1

SW-620 = experiment: cells; assay type: cell-based; settings: Homo sapiens
Procedure, shortened: as §1

[1] = test system: AML-12, normal mouse liver cells; settings: 24 h
Procedure: (§2) In order to assess the cytotoxicity of the drugs to normal cells, we used 96 well plates plated at a density of 5000 cells per well (except for the FDC-P1 which were plated at 12,000 cells per well) with normal cell lines (ATCC, Table 1) maintained as per the directions of the ATCC: AML-12, normal mouse liver cells; NRK-52E, normal rat kidney cells; L8, normal rat skeletal muscle cells; FDC-P1, normal mouse myelogeous stem cells; and H9c2 (2-1), normal rat cardiac muscle cells. The cells in each plate were permitted to settle overnight before adding the test drug.
(§3) To each well (100 μl medium) 10 μl of drug in media was added at varying concentrations (1×10-10-0.01 mg/ml final concentration) and further incubated overnight at 37° C. with 5% CO2. After 24 h the following assays were performed. All experiments were repeated at least 3 times and were assayed in duplicate.
(§4) MTS assay (CellTiter 96 aqueous) was performed according to the manufacturer's (Promega) directions (for all cell types). Cell viability (mitochondrial activity) is determined via enzymatic conversion of the formazan substrate.

[2] = test system: NRK-52E, normal rat kidney cells; settings: 24 h
Procedure: as §2, §3, §4

[3] = test system: L8, normal rat skeletal muscle cells; settings: 24 h
[4] = test system: FDC-P1, normal mouse myelogeous stem cells; settings: 24 h
[5] = test system: H9c2 (2-1), normal rat cardiac muscle cells; settings: 24 h
[6] = s9, 60 min, 1 μM
physchem [7] = settings: pH 7.4, log D n-Octanol-Dulbecco's PBS pH 7.4
CYP3A4 = CYP3A4 (Homo sapiens, UniProt P08684); experiment: in vitro; settings: CYP3A4 (% inhibition)
Procedure: For CYP3A4 inhibition assay, the compound were tested at 10 μM in duplicate with a 0.25% final concentration of both methanol and acetonitrile in presence of the fluorescent substrate BFC (50 μM). The conversion of the BFC (7-benzyloxy-4-trifluoromethylcoumarin) in HFC (7-hydroxy-4-trifluoromethylcoumarin) was determined spectro-fluormetry after incubation with the enzyme during 30 min at 37° C.
For both assays, the fluorescent intensity measured at t=0 is subtracted from that measured after the appropriate incubation time. The ratio of signal-to-noise is calculated by comparing the fluorescence in incubations containing the test compound to the control samples containing the same solvent vehicle. The percent of control activity is calculated and reported as percent inhibition.

physchem [8] = settings: pH 7.4, aqueous buffer, Solubility Dulbecco's PBS pH 7.4
IGROV-ET = experiment: cells; assay type: cell-based; settings: Homo sapiens, 48 h
Procedure, shortened: as §1

IGROV = experiment: cells; assay type: cell-based; settings: Homo sapiens, 48 h
Procedure, shortened: as §1

K562 = experiment: cells; assay type: cell-based; settings: Homo sapiens, K562, 48 h
Procedure, shortened: as §1

LNCAP = experiment: cells; assay type: cell-based; settings: Homo sapiens, LNCaP, 48 h
Procedure, shortened: as §1

LOVO-DOX = experiment: cells; assay type: cell-based; settings: Homo sapiens, 48 h
Procedure, shortened: as §1

LOVO = experiment: cells; assay type: cell-based; settings: Homo sapiens, LoVo, 48 h
Procedure, shortened: as §1

PANC-1 = experiment: cells; assay type: cell-based; settings: Homo sapiens, PANC-1, 48 h
Procedure, shortened: as §1

SK-BR3 = experiment: cells; assay type: cell-based; settings: Homo sapiens, SK-BR-3, 48 h
Procedure, shortened: as §1

H-MEC-1 = experiment: Inhibition of cells growth by colorimetric assay (SRB), H-MEC-1; assay type: cell-based; settings: Homo sapiens, HMEC-1, 48 h
Procedure, shortened: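 SRB colorimetric read-out (490 nm) after TCA fixation gave GI, TGI and LC values from triplicate wells. Before that, cells (5×10^3/well, RPMI 1640 with 10% FBS, 37 °C, 5% CO2) grew drug-free 18 h and were then continuously exposed 48 h to 10–10^−8 μg/ml compound.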

SK-OV3 = experiment: Inhibition of cells growth by colorimetric assay (SRB), SK-OV3; assay type: cell-based
Text: The finality of these assays is to interrupt the growth of a “in vitro” tumor cell culture by means of a continued exhibition of the cells to the sample to be testing.
A colorimetric type of assay, using sulphorhodamine B (SRB) reaction has been adapted for a quantitative measurement of cell growth and viability [following the technique described by Philip Skehan, et al. (1990), New colorimetric cytotoxicity assay for anticancer drug screening, J. Natl. Cancer Inst., 82:1107-1112]
This form of the assay employs 96 well cell culture microplates of 9 mm diameter (Faircloth, 1988; Mosmann, 1983). Most of the cell lines are obtained from American Type Culture Collection (ATCC) derived from different human cancer types.
Cells are maintained in RPMI 1640 10% FBS, supplemented with 0.1 g/l penicillin and 0.1 g/l streptomycin sulphate and then incubated at 37° C., 5% CO2 and 98% humidity. For the experiments, cells were harvested from subconfluent cultures using trypsin and resuspended in fresh medium before plating.
Cells are seeded in 96 well microtiter plates, at 5×10^3 cells per well in aliquots of 195 μl medium, and they are allowed to attach to the plate surface by growing in drug free medium for 18 hours. Afterward, samples are added in aliquots of 5 μl in a ranging from 10 to 10^−8 μg/ml, dissolved in DMSO/EtOH/PBS (0.5:0.5:99). After 48 hours exposure, the antitumor effect are measured by the SRB methodology: cells are fixed by adding 50 μl of cold 50% (wt/vol) trichloroacetic acid (TCA) and incubating for 60 minutes at 4° C. Plates are washed with deionized water and dried. One hundred μl of SRB solution (0.4% wt/vol in 1% acetic acid) is added to each microtiter well and incubated for 10 minutes at room temperature. Unbound SRB is removed by washing with 1% acetic acid. Plates are air dried and bound stain is solubilized with Tris buffer. Optical densities are read on a automated spectrophotometric plate reader at a single wavelength of 490 nm.
The values for mean+/− SD of data from triplicate wells are calculated. Some parameters for cellular responses can be calculated: GI=growth inhibition, TGI=total growth inhibition (cytostatic effect) and LC=cell killing (cytotoxic effect).

(HEPG2) = settings: human, 24 h, 30 μM
Procedure: The toxic potential of compounds was investigated in vitro using primary human hepatocytes (HEPG2). The compounds were tested at 30 μM in duplicate with a final DMSO concentration of 1%. After incubation during 24 h at 37° C. the cell viability was determined by the conversion of oxided alarmarBlue (resazurin) to reduced alarmarBlue (resorufin). Chlorpromazine was used as reference compound. Results are expressed as a percent of inhibition of control values.

[9] = IGROV-ET, 48 hours exposure, SRB
[10] = LOVO-DOX, 48 hours exposure, SRB
[11] = H-MEC-1, 48 hours exposure, SRB

Sequence of CYP3A4 (P08684 whole entry): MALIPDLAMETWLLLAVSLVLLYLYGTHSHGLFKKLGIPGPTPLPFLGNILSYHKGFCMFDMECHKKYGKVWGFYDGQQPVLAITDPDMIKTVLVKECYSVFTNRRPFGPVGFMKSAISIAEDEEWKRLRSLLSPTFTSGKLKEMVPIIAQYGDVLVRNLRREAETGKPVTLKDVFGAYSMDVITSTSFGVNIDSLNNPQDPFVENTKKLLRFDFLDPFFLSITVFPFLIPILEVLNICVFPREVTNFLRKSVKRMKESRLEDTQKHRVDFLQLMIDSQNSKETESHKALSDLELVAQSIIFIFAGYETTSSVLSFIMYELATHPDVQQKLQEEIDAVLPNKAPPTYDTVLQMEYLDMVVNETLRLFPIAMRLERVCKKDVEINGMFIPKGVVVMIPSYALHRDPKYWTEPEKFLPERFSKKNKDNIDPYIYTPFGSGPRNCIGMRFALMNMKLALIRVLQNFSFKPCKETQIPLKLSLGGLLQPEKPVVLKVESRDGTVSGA

COc1c(C)cc2c(c1O)[C@@H]1C3[C@@H]4SC[C@]5(NCCc6c5[nH]c5ccc(C)cc65)C(=O)COC[C@@H](c5c6c(c(C)c(OC(C)=O)c54)OCO6)N3[C@@H](O)[C@H](C2)N1C (stereo partly shown) [Compound 30]
CC50 (A498; A498, 48 h, read-out: LC50): 2.6 nM | GI50 (A498; A498, 48 hours exposure, SRB): 0.13 nM | IC (TGI) (A498; A498, 48 hours exposure, SRB): 0.52 nM | GI50 (A549): 0.039 nM | IC (TGI) (A549): 0.26 nM | CC50 (A549): 1.04 nM | GI50 (DU145): 0.013 nM | IC (TGI) (DU145): 0.039 nM | CC50 (DU145): 0.13 nM | GI50 (HT29): 0.104 nM | IC (TGI) (HT29): 0.39 nM | CC50 (HT29): 1.04 nM | CC50 (MB231; 48 h, read-out: LC50): 3.9 nM | GI50 (MB231; MB231, 48 hours exposure, SRB): 0.0026 nM | IC (TGI) (MB231; MB231, 48 hours exposure, SRB, read-out: TGI): 0.13 nM | CC50 (MCF; 48 h, read-out: LC50): 2.6 nM | GI50 (MCF; MCF, 48 hours exposure, SRB): 0.26 nM | IC (TGI) (MCF; MCF, 48 hours exposure, SRB, read-out: TGI): 0.39 nM | GI50 (MEL-28): 0.026 nM | IC (TGI) (MEL-28): 0.13 nM | CC50 (MEL-28): 0.65 nM | CC50 (SW-620; SW-620, 48 h, read-out: LC50): 1.3 nM | IC (TGI) (SW-620; SW-620, 48 hours exposure, SRB): 0.39 nM | GI50 (SW-620; SW-620, 48 hours exposure, SRB, read-out: GI50): 0.026 nM | Liver [1]: 2.72E−07 | Kidney [2]: 4.19E−09 | Skeletal [3]: 2.51E−08 | Myelo [4]: 7.58E−09 | Heart [5]: 5.06E−07 | Human Liver S9 Metabolic Stability (% remaining) [6]: 6 % remaining | logD at 60 min (physchem [7]): > 4.9 | inhibition at 30 min, 10 µM (CYP3A4): 25% | solubility (physchem [8]): 2.24 µM (≈ 1.75 µg/mL)

COc1c(C)cc2c(c1O)[C@@H]1C3[C@@H]4SC[C@]5(NCCc6c5[nH]c5ccc(F)cc65)C(=O)COC[C@@H](c5c6c(c(C)c(OC(C)=O)c54)OCO6)N3[C@@H](O)[C@H](C2)N1C (stereo partly shown) [Compound 35]
GI50 (A549): 3.03 nM | IC (TGI) (A549): 7.65 nM | CC50 (A549): 4090 nM | GI50 (DU145): 3.83 nM | IC (TGI) (DU145): 12 nM | CC50 (DU145): 12900 nM | GI50 (HT29): 4.19 nM | IC (TGI) (HT29): 13.2 nM | CC50 (HT29): 12900 nM | GI50 (IGROV-ET; [9]): 5.53 nM | IC (TGI) (IGROV-ET; [9]): 23.5 nM | CC50 (IGROV-ET; read-out: LC50, IGROV-ET, 48 hours exposure, SRB): 12900 nM | GI50 (IGROV; 48 hours exposure, SRB): 3.45 nM | IC (TGI) (IGROV; 48 hours exposure, SRB): 7.72 nM | CC50 (IGROV; read-out: LC50, IGROV, 48 hours exposure, SRB): 3380 nM | GI50 (K562; K562, 48 hours exposure, SRB): 1.14 nM | IC (TGI) (K562; K562, 48 hours exposure, SRB): 2.67 nM | CC50 (K562; read-out: LC50, K562, 48 hours exposure, SRB): 10.2 nM | GI50 (LNCAP; 48 hours exposure, SRB): 0.816 nM | IC (TGI) (LNCAP; 48 hours exposure, SRB): 2.5 nM | CC50 (LNCAP; read-out: LC50, LNCAP, 48 hours exposure, SRB): 7.48 nM | GI50 (LOVO-DOX; [10]): 26.8 nM | IC (TGI) (LOVO-DOX; [10]): 124 nM | CC50 (LOVO-DOX; read-out: LC50, LOVO-DOX, 48 hours exposure, SRB): 12900 nM | GI50 (LOVO; 48 hours exposure, SRB): 2.26 nM | IC (TGI) (LOVO; 48 hours exposure, SRB): 5.68 nM | CC50 (LOVO; read-out: LC50, LOVO, 48 hours exposure, SRB): 12.9 nM | GI50 (MEL-28): 2.78 nM | IC (TGI) (MEL-28): 7.16 nM | CC50 (MEL-28): 47 nM | GI50 (PANC-1; PANC-1, 48 hours exposure, SRB): 4.52 nM | IC (TGI) (PANC-1; PANC-1, 48 hours exposure, SRB): 42.1 nM | CC50 (PANC-1; read-out: LC50, PANC-1, 48 hours exposure, SRB): 12900 nM | GI50 (SK-BR3; SK-BR3, 48 hours exposure, SRB): 2.21 nM | IC (TGI) (SK-BR3; SK-BR3, 48 hours exposure, SRB): 6.55 nM | CC50 (SK-BR3; read-out: LC50, SK-BR3, 48 hours exposure, SRB): 1090 nM | GI50 (H-MEC-1; [11]): 2.6 nM | IC (TGI) (H-MEC-1; [11]): 30.4 nM | CC50 (H-MEC-1; read-out: LC50, H-MEC-1, 48 hours exposure, SRB): 12900 nM | GI50 (SK-OV3; Homo sapiens, SK-OV-3, 48 h, SK-OV3, 48 hours exposure, SRB): 4.37 nM | CC50 (SK-OV3; Homo sapiens, SK-OV-3, 48 h, read-out: LC50, SK-OV3, 48 hours exposure, SRB): 12900 nM | TGI (SK-OV3; SK-OV3, 48 hours exposure, SRB): 1.46E−08 Molar | Liver [1]: 4.88E−08 | Kidney [2]: 3.42E−08 | Skeletal [3]: 3.07E−08 | Myelo [4]: 4.08E−08 | Heart [5]: 1.93E−08 | Human Liver S9 Metabolic Stability (% remaining) [6]: 4 % remaining | Cell Viability (% inhibition) ((HEPG2)): 23 % inhibition | logD at 60 min (physchem [7]): > 5 | inhibition at 30 min, 10 µM (CYP3A4): 24% | solubility (physchem [8]): < 1 µM
